Source: the NIST ThermoML archive (doi:10.1016/j.jct.2017.03.026)
“And” between values parts separate entries of the source, which are not always exact repeats. Identical values can stand only once. ± gives the expanded uncertainty stated by the source.

Assay: molar heat capacity at constant pressure
Conditions: 101.33 kPa, Crystal, Small (less than 1 g) adiabatic calorimetry

O.O.O.O.O.O=S(=O)([O-])[O-].[Cu+2] [copper(II) sulfate pentahydrate]
molar heat capacity at constant pressure (147.86 K): 165.08 ± 0.96 J/K/mol | molar heat capacity at constant pressure (148.14 K): 163.74 ± 0.7 J/K/mol | molar heat capacity at constant pressure (148.35 K): 165.5 ± 0.96 J/K/mol | molar heat capacity at constant pressure (148.79 K): 165.6 ± 0.96 J/K/mol | molar heat capacity at constant pressure (148.94 K): 165.94 ± 0.96 J/K/mol | molar heat capacity at constant pressure (149.18 K): 164.71 ± 0.7 J/K/mol | molar heat capacity at constant pressure (149.89 K): 165.56 ± 0.7 J/K/mol | molar heat capacity at constant pressure (150 K): 165.6 ± 0.7 J/K/mol | molar heat capacity at constant pressure (150.02 K): 166.77 ± 0.96 J/K/mol | molar heat capacity at constant pressure (150.23 K): 165.8 ± 0.69 J/K/mol | molar heat capacity at constant pressure (150.52 K): 166.26 ± 0.7 J/K/mol | molar heat capacity at constant pressure (150.77 K): 167.63 ± 0.96 J/K/mol | molar heat capacity at constant pressure (151.09 K): 168 ± 0.96 J/K/mol | molar heat capacity at constant pressure (151.27 K): 167.02 ± 0.7 J/K/mol | molar heat capacity at constant pressure (151.52 K): 168.7 ± 0.97 J/K/mol | molar heat capacity at constant pressure (151.97 K): 167.63 ± 0.7 J/K/mol | molar heat capacity at constant pressure (152.1 K): 169 ± 0.97 J/K/mol | molar heat capacity at constant pressure (152.17 K): 169.13 ± 0.97 J/K/mol | molar heat capacity at constant pressure (152.32 K): 167.82 ± 0.7 J/K/mol | molar heat capacity at constant pressure (153.24 K): 170.02 ± 0.97 J/K/mol | molar heat capacity at constant pressure (153.38 K): 169.02 ± 0.71 J/K/mol | molar heat capacity at constant pressure (153.43 K): 170.11 ± 0.97 J/K/mol | molar heat capacity at constant pressure (153.64 K): 169.31 ± 0.71 J/K/mol | molar heat capacity at constant pressure (154.06 K): 169.63 ± 0.71 J/K/mol | molar heat capacity at constant pressure (154.32 K): 171.06 ± 0.98 J/K/mol | molar heat capacity at constant pressure (154.42 K): 169.98 ± 0.71 J/K/mol | molar heat capacity at constant pressure (154.7 K): 171.74 ± 0.98 J/K/mol | molar heat capacity at constant pressure (154.77 K): 171.25 ± 0.98 J/K/mol | molar heat capacity at constant pressure (155.4 K): 172.12 ± 0.98 J/K/mol | molar heat capacity at constant pressure (155.47 K): 171.07 ± 0.71 J/K/mol | molar heat capacity at constant pressure (156.1 K): 172.57 ± 0.99 J/K/mol | molar heat capacity at constant pressure (156.15 K): 171.68 ± 0.71 J/K/mol | molar heat capacity at constant pressure (156.48 K): 173.12 ± 0.98 J/K/mol | molar heat capacity at constant pressure (156.52 K): 172.03 ± 0.72 J/K/mol | molar heat capacity at constant pressure (156.76 K): 172.32 ± 0.72 J/K/mol | molar heat capacity at constant pressure (157.44 K): 173.97 ± 0.98 J/K/mol | molar heat capacity at constant pressure (157.56 K): 174.08 ± 0.98 J/K/mol | molar heat capacity at constant pressure (157.57 K): 172.98 ± 0.72 J/K/mol | molar heat capacity at constant pressure (157.89 K): 174.79 ± 0.98 J/K/mol | molar heat capacity at constant pressure (158.24 K): 173.62 ± 0.72 J/K/mol | molar heat capacity at constant pressure (158.61 K): 173.88 ± 0.72 J/K/mol | molar heat capacity at constant pressure (158.64 K): 175.11 ± 0.99 J/K/mol | molar heat capacity at constant pressure (158.78 K): 175.17 ± 0.99 J/K/mol | molar heat capacity at constant pressure (159.66 K): 174.82 ± 0.73 J/K/mol | molar heat capacity at constant pressure (159.72 K): 176.1 ± 0.99 J/K/mol | molar heat capacity at constant pressure (159.88 K): 175.23 ± 0.73 J/K/mol | molar heat capacity at constant pressure (160 K): 175.2 ± 0.7 J/K/mol | molar heat capacity at constant pressure (160.11 K): 176.48 ± 0.99 J/K/mol | molar heat capacity at constant pressure (160.32 K): 175.83 ± 0.73 J/K/mol | molar heat capacity at constant pressure (160.71 K): 175.82 ± 0.73 J/K/mol | molar heat capacity at constant pressure (160.81 K): 177.05 ± 1 J/K/mol | molar heat capacity at constant pressure (161.09 K): 177.82 ± 1 J/K/mol | molar heat capacity at constant pressure (161.48 K): 177.68 ± 1 J/K/mol | molar heat capacity at constant pressure (161.75 K): 176.91 ± 0.72 J/K/mol | molar heat capacity at constant pressure (161.89 K): 178.2 ± 1 J/K/mol | molar heat capacity at constant pressure (162.41 K): 177.56 ± 0.73 J/K/mol | molar heat capacity at constant pressure (162.8 K): 177.97 ± 0.73 J/K/mol | molar heat capacity at constant pressure (162.82 K): 178.9 ± 1 J/K/mol | molar heat capacity at constant pressure (163 K): 179.4 ± 1 J/K/mol | molar heat capacity at constant pressure (163.01 K): 178.38 ± 0.73 J/K/mol | molar heat capacity at constant pressure (163.85 K): 178.9 ± 0.73 J/K/mol | molar heat capacity at constant pressure (164.09 K): 180.26 ± 1 J/K/mol | molar heat capacity at constant pressure (164.16 K): 180.28 ± 1 J/K/mol | molar heat capacity at constant pressure (164.29 K): 180.86 ± 1 J/K/mol | molar heat capacity at constant pressure (164.49 K): 179.69 ± 0.73 J/K/mol | molar heat capacity at constant pressure (164.89 K): 179.88 ± 0.73 J/K/mol | molar heat capacity at constant pressure (165.17 K): 181.13 ± 1 J/K/mol | molar heat capacity at constant pressure (165.49 K): 181.52 ± 1 J/K/mol | molar heat capacity at constant pressure (165.94 K): 180.9 ± 0.74 J/K/mol | molar heat capacity at constant pressure (166.13 K): 181.26 ± 0.74 J/K/mol | molar heat capacity at constant pressure (166.26 K): 182.01 ± 1 J/K/mol | molar heat capacity at constant pressure (166.58 K): 181.3 ± 0.74 J/K/mol | molar heat capacity at constant pressure (166.83 K): 182.73 ± 1 J/K/mol | molar heat capacity at constant pressure (166.99 K): 181.72 ± 0.74 J/K/mol | molar heat capacity at constant pressure (167.35 K): 183.04 ± 1 J/K/mol | molar heat capacity at constant pressure (167.49 K): 183.69 ± 1 J/K/mol | molar heat capacity at constant pressure (168.03 K): 182.66 ± 0.74 J/K/mol | molar heat capacity at constant pressure (168.17 K): 183.76 ± 1 J/K/mol | molar heat capacity at constant pressure (168.44 K): 184.44 ± 1 J/K/mol | molar heat capacity at constant pressure (168.67 K): 183.22 ± 0.75 J/K/mol | molar heat capacity at constant pressure (169.08 K): 183.64 ± 0.75 J/K/mol | molar heat capacity at constant pressure (169.26 K): 184.18 ± 0.75 J/K/mol | molar heat capacity at constant pressure (169.5 K): 184.87 ± 1 J/K/mol | molar heat capacity at constant pressure (169.53 K): 185.06 ± 1 J/K/mol | molar heat capacity at constant pressure (170 K): 184.5 ± 0.7 J/K/mol | molar heat capacity at constant pressure (170.13 K): 184.56 ± 0.75 J/K/mol | molar heat capacity at constant pressure (170.62 K): 186.24 ± 1 J/K/mol | molar heat capacity at constant pressure (170.71 K): 186.66 ± 1 J/K/mol | molar heat capacity at constant pressure (170.76 K): 185.15 ± 0.75 J/K/mol | molar heat capacity at constant pressure (170.84 K): 186.28 ± 1 J/K/mol | molar heat capacity at constant pressure (171.17 K): 185.59 ± 0.75 J/K/mol | molar heat capacity at constant pressure (171.71 K): 187.47 ± 1 J/K/mol | molar heat capacity at constant pressure (172.18 K): 187.68 ± 1 J/K/mol | molar heat capacity at constant pressure (172.38 K): 187.03 ± 0.76 J/K/mol | molar heat capacity at constant pressure (172.8 K): 188.14 ± 1 J/K/mol | molar heat capacity at constant pressure (172.85 K): 187.26 ± 0.76 J/K/mol | molar heat capacity at constant pressure (173.51 K): 188.79 ± 1 J/K/mol | molar heat capacity at constant pressure (173.89 K): 188.9 ± 1 J/K/mol | molar heat capacity at constant pressure (173.93 K): 189.4 ± 1 J/K/mol | molar heat capacity at constant pressure (174.85 K): 189.91 ± 1 J/K/mol | molar heat capacity at constant pressure (174.95 K): 188.94 ± 0.76 J/K/mol | molar heat capacity at constant pressure (174.98 K): 190 ± 1 J/K/mol | molar heat capacity at constant pressure (175.51 K): 189.78 ± 0.76 J/K/mol | molar heat capacity at constant pressure (176.07 K): 191.28 ± 1 J/K/mol | molar heat capacity at constant pressure (176.18 K): 191.23 ± 1 J/K/mol | molar heat capacity at constant pressure (177.04 K): 190.61 ± 0.76 J/K/mol | molar heat capacity at constant pressure (177.15 K): 192.53 ± 1 J/K/mol | molar heat capacity at constant pressure (177.16 K): 191.97 ± 1 J/K/mol | molar heat capacity at constant pressure (177.52 K): 192.4 ± 1 J/K/mol | molar heat capacity at constant pressure (178.25 K): 192.97 ± 1 J/K/mol | molar heat capacity at constant pressure (178.63 K): 192.28 ± 0.77 J/K/mol | molar heat capacity at constant pressure (178.85 K): 193.69 ± 1 J/K/mol | molar heat capacity at constant pressure (179.13 K): 192.37 ± 0.77 J/K/mol | molar heat capacity at constant pressure (179.35 K): 194.03 ± 1 J/K/mol | molar heat capacity at constant pressure (180 K): 193.2 ± 0.8 J/K/mol | molar heat capacity at constant pressure (180.19 K): 194.75 ± 1 J/K/mol | molar heat capacity at constant pressure (180.42 K): 195.75 ± 1 J/K/mol | molar heat capacity at constant pressure (180.47 K): 195.63 ± 1 J/K/mol | molar heat capacity at constant pressure (181.21 K): 194.29 ± 0.77 J/K/mol | molar heat capacity at constant pressure (181.52 K): 196.05 ± 1 J/K/mol | molar heat capacity at constant pressure (181.57 K): 196.1 ± 1 J/K/mol | molar heat capacity at constant pressure (181.75 K): 194.99 ± 0.78 J/K/mol | molar heat capacity at constant pressure (182.67 K): 197.05 ± 1.1 J/K/mol | molar heat capacity at constant pressure (182.89 K): 197.45 ± 1.1 J/K/mol | molar heat capacity at constant pressure (183.3 K): 195.97 ± 0.78 J/K/mol | molar heat capacity at constant pressure (183.65 K): 198.96 ± 1.1 J/K/mol | molar heat capacity at constant pressure (183.77 K): 198.41 ± 1.1 J/K/mol | molar heat capacity at constant pressure (184.23 K): 198.67 ± 1.1 J/K/mol | molar heat capacity at constant pressure (184.86 K): 199.51 ± 1.1 J/K/mol | molar heat capacity at constant pressure (184.87 K): 197.91 ± 0.79 J/K/mol | molar heat capacity at constant pressure (185.39 K): 197.77 ± 0.79 J/K/mol | molar heat capacity at constant pressure (185.55 K): 200.51 ± 1.1 J/K/mol | molar heat capacity at constant pressure (185.95 K): 200.62 ± 1.1 J/K/mol | molar heat capacity at constant pressure (186.89 K): 201.62 ± 1.1 J/K/mol and 202.38 ± 1.1 J/K/mol | molar heat capacity at constant pressure (187.05 K): 201.82 ± 1.1 J/K/mol | molar heat capacity at constant pressure (187.48 K): 199.99 ± 0.79 J/K/mol | molar heat capacity at constant pressure (187.99 K): 200.27 ± 0.79 J/K/mol | molar heat capacity at constant pressure (188.14 K): 203.75 ± 1.1 J/K/mol | molar heat capacity at constant pressure (188.22 K): 203.53 ± 1.1 J/K/mol | molar heat capacity at constant pressure (189.25 K): 204.46 ± 1.1 J/K/mol | molar heat capacity at constant pressure (189.56 K): 204.62 ± 1.1 J/K/mol | molar heat capacity at constant pressure (189.57 K): 201.44 ± 0.79 J/K/mol | molar heat capacity at constant pressure (190 K): 201.9 ± 0.8 J/K/mol | molar heat capacity at constant pressure (190.12 K): 206.13 ± 1.1 J/K/mol | molar heat capacity at constant pressure (190.35 K): 205.41 ± 1.1 J/K/mol | molar heat capacity at constant pressure (190.88 K): 206.97 ± 1.1 J/K/mol | molar heat capacity at constant pressure (191.11 K): 202.91 ± 0.79 J/K/mol | molar heat capacity at constant pressure (191.45 K): 206.67 ± 1.1 J/K/mol | molar heat capacity at constant pressure (191.66 K): 203.21 ± 0.8 J/K/mol | molar heat capacity at constant pressure (192.21 K): 207.95 ± 1.1 J/K/mol | molar heat capacity at constant pressure (192.55 K): 207.97 ± 1.1 J/K/mol | molar heat capacity at constant pressure (193.37 K): 209.23 ± 1.1 J/K/mol | molar heat capacity at constant pressure (193.55 K): 208.35 ± 1.1 J/K/mol | molar heat capacity at constant pressure (193.65 K): 208.94 ± 1.1 J/K/mol | molar heat capacity at constant pressure (193.74 K): 205.3 ± 0.8 J/K/mol | molar heat capacity at constant pressure (194.23 K): 206.14 ± 0.8 J/K/mol | molar heat capacity at constant pressure (194.75 K): 209.89 ± 1.1 J/K/mol | molar heat capacity at constant pressure (194.87 K): 210.1 ± 1.1 J/K/mol | molar heat capacity at constant pressure (195.83 K): 207.12 ± 0.81 J/K/mol
